# Values of other authors in patent US20130344444A1, “PROCESS FOR MAKING LITHOGRAPHIC PRINTING PLATE” (FUJIFILM Corporation, priority 2011, published 2013).
SMILES,solubility in water,solubility in water (in words)
"OCc1ccccc1 [Benzyl alcohol, reference compound]",4.0 g/100 mL of water,–
CCCCC(CC)COCCOCCO (stereo not drawn) [Diethylene glycol mono-2-ethylhexyl ether],0.3 g/100 mL of water,–
CC(C)(C)OCCO [Ethylene glycol mono-t-butyl ether],–,mutually mixing
"OCCOc1ccccc1 [Ethyleneglycol monophenyl ether, reference compound]",2.7 g/100 mL of water,–

# The next lines start with the values.
solubility in water,solubility in water (in words),SMILES
1.0 g/100 mL of water,–,CCCCCCOCCO [Ethylene glycol mono-n-hexyl ether]
4.4 g/100 mL of water,–,CCCCOCC(C)O (stereo not drawn) [Propylene glycol mono-n-butyl ether]
